Results on one substance are retold here after US20160000750A1, “COMBINATION OF EGCG OR METHYLATED EGCG AND A PDE INHIBITOR” (KYUSHU UNIVERSITY, NATIONAL UNIVERSITY CORPORATION, priority 2010, published 2016).

The test system of assay [1] is human prostate cancer cell line, PC3. Description: Trypan blue cell viability and viable cell count, PC3. Particulars: vardenafil 5 μM, EGCG 10 μM added after 2 hours, 96 hours. The class given is cell-based. On the procedure:
A human prostate cancer cell line, PC3, was subcultured in an RPMI 1640 medium supplemented with 10% fetal calf serum (FCS) at 37° C. under vapor-saturated 5% CO2 conditions. The cells were cultured in the logarithmic growth phase. The RPMI 1640 medium used in the culture was prepared by suspending 10.4 g of an RPMI 1640 medium, 2.38 g of HEPES, 0.5 vial of Penicillin G Potassium for Injection 200000 Unit, 0.1 vial of Streptomycin Sulfate for Injection 1 g, and 2.0 g of NaHCO3 in 1 L of ultrapure water, followed by filter sterilization. Subsequently, the RPMI 1640 medium was supplemented with fetal calf serum (FCS) and was used in cell culture. A trypan blue staining solution was prepared by suspending trypan blue in PBS at a concentration of 1% and was used in investigation of the anti-cancer activity of a combination of EGCG and vardenafil by trypan blue assay. The PBS used was prepared by dissolving 8.0 g of NaCl, 0.2 g of KCl, 1.15 g of Na2HPO4, and 0.2 g of KH2PO4 in 1 L of ultrapure water, followed by autoclave sterilization. […] After 10 minutes, the number of the cells was counted with a hemocytometer. Unstained cells were deemed as viable cells, and the cell viability was determined as a ratio of the number of unstained cells in trypan blue staining to the total number of cells. […]

Assay [2] relates to human multiple myeloma cell line, U266. Description: Trypan blue cell viability and viable cell count, U266. The class given is cell-based. The note with it: vardenafil 5 μM, EGCG 5 μM added after 3 hours, 96 hours. The procedure:
A human multiple myeloma cell line, U266, was subcultured in an RPMI 1640 medium (NISSUI PHARMACEUTICAL Co. LTD., Tokyo) supplemented with 10% fetal calf serum (FCS) (BIOLOGICAL INDUSTRIES) at 37° C. under vapor-saturated 5% CO2 conditions. The cells were cultured in the logarithmic growth phase. A human acute myeloid leukemia cell line, HL60, was subcultured in an RPMI 1640 medium supplemented with 10% fetal calf serum (FCS) at 37° C. under vapor-saturated 5% CO2 conditions. The cells were cultured in the logarithmic growth phase. […]
The plate was returned to the incubator immediately after the addition of EGCG, followed by culturing for 96 hours. […] After 10 minutes, the number of the cells was counted with a hemocytometer (Becton, Dickinson and Company). Unstained cells were deemed as viable cells, and the cell viability was determined as a ratio of the number of unstained cells in trypan blue staining to the total number of cells. […]

With (−)-epigallocatechin-3-O-gallate [EGCG], the “cell viability (cell-killing activity)” value in assay [1] and in assay [2] was “any cytotoxicity was not observed” each time.
